This is an account of results in patent US10865334B2, “Process for extracting materials from biological material” (Universiteit Leiden, priority 2010, dated 2020).

SMILES strings stand for the structures. In brackets after ≈: the same amount, converted by molar mass.

A short description of series [1]: solubility of flavonoids in naturally occurring deep eutectic solvents. The format is physicochemical. As for the experimental part:
First the solubility of natural products, which are not soluble in water, was evaluated in a few selected natural deep eutectic solvents. Several flavonoids were chosen as the natural water-insoluble products, because they are one of the most abundant water-insoluble plant secondary metabolites. Up to now more than 500 flavonoids have been known. Most of these flavonoids occur in their glycosides forms (bounded to a sugar molecule) in plants. In spite of large abundance of flavonoids in plants, both the glycoside and the aglycone (non-sugar) part are not soluble in water. […] The structure of these flavonoids are shown below.

Series [2] can be described thus: solubility data in some typical Des at 40° C. The format is physicochemical. Particulars: for solubility in GCH / solubility in H2O / solubility in LGH / solubility in PdCH / solubility in SoCH: n = 3.
The mark [3] stands for this setting: solvent GCH (Glc:Ch:H2O 1:2.5:2.5).
Setting [4] is: solvent LGH (Lac:Glc:H2O 5:1:2).
Setting [5] is: solvent PdCH (1,2Prop:Ch:H20 1:1:1).
Where [6] appears, read: deep eutectic solvent LGH, organic solvent or mixture, solvent LGH (Lac:Glc:H2O 5:1:2), n = 3, read-out: solubility in LGH.
The mark [7] stands for this setting: deep eutectic solvent PdCH, organic solvent or mixture, solvent PdCH (1,2Prop:Ch:H20 1:1:1), n = 3, read-out: solubility in PdCH.
Where [8] appears, read: deep eutectic solvent SoCH, organic solvent or mixture, solvent SoCH (So:Ch:H2O), n = 3, read-out: solubility in SoCH.
Setting [9] is: deep eutectic solvent GCH, organic solvent or mixture, solvent GCH (Glc:Ch:H2O 1:2.5:2.5), n = 3, read-out: solubility in GCH.
The mark [10] stands for this setting: organic solvent or mixture, Solubility in Fructose + Choline chloride.
[11] abbreviates: organic solvent or mixture, Solubility in Glucose + Choline chloride.

As to `C[C@@H]1O[C@@H](Oc2c(-c3ccc(O)c(O)c3)oc3cc(O)cc(O)c3c2=O)[C@H](O)[C@H](O)[C@H]1O` [Quercitrin, quercetin-3-O-rhamnoside], the solubility in series [1] (organic solvent or mixture, deep eutectic solvent Fructose + Choline chloride, read-out: Solubility in Fructose + Choline chloride) was found to be 11.2 ± 0.64 mg/mL; in series [1] (organic solvent or mixture, deep eutectic solvent Glucose + Choline chloride, read-out: Solubility in Glucose + Choline chloride), 7.81 ± 0.2 mg/mL; in series [1] (organic solvent or mixture, deep eutectic solvent Sucrose + Choline chloride, read-out: Solubility in Sucrose + Choline chloride), 12.7 ± 0.38 mg/mL; in series [1] (water, read-out: Solubility in Water), 0.159 ± 0.001 mg/mL (≈ 0.355 mM).

`O=C(/C=C/c1ccc(O)cc1)C1=C(O)[C@](O)([C@@H]2O[C@H](CO)[C@@H](O)[C@H](O)[C@H]2O)C(O)=C(/C=C2/C(=O)C(C(=O)/C=C/c3ccc(O)cc3)=C(O)[C@@](O)([C@@H]3O[C@H](CO)[C@@H](O)[C@H](O)[C@H]3O)C2=O)C1=O` [carthamin]: the “solubility in GCH” value in series [2] (setting [3]) was determined as 27.20 ± 0.39 mg/mL (≈ 29.9 mM). Besides, the “solubility in H2O” value in series [2] (solvent H2O) was found to be 1.43 ± 0.01 mg/mL (≈ 1.57 mM). Moreover, in series [2] (setting [4]), the “solubility in LGH” value is 1.24 ± 0.21 mg/mL (≈ 1.36 mM). Moreover, in series [2] (setting [5]), the “solubility in PdCH” value was 22.47 ± 1.00 mg/mL (≈ 24.7 mM). The “solubility in SoCH” value in series [2] (solvent SoCH (So:Ch:H2O)) was found to be 14.05 ± 0.66 mg/mL (≈ 15.4 mM).

Regarding `CC1C(=O)OC2C(O)C34C5CC(C(C)(C)C)C36C(OC(=O)C6O)OC4(C(=O)O5)C12O` (centres unmarked) [ginkgolide B], in series [2] (setting [3]), the “solubility in GCH” value is 5.85 ± 0.42 mg/mL (≈ 13.8 mM). Moreover, the “solubility in H2O” value in series [2] (solvent H2O) stood at 0.15 ± 0.00 mg/mL (≈ 0.353 mM). For the same compound, the “solubility in LGH” value in series [2] (setting [4]) came out at 1.93 ± 0.31 mg/mL (≈ 4.55 mM). Also, the “solubility in PdCH” value in series [2] (setting [5]) was found to be 78.42 ± 14.45 mg/mL (≈ 185 mM). For the same compound, the “solubility in SoCH” value in series [2] (solvent SoCH (So:Ch:H2O)) is 1.70 ± 0.01 mg/mL (≈ 4.01 mM).

With `CC(=O)O[C@H]1C(=O)[C@@]2(C)[C@H]([C@H](OC(=O)c3ccccc3)[C@]3(O)C[C@H](OC(=O)[C@H](O)[C@@H](NC(=O)c4ccccc4)c4ccccc4)C(C)=C1C3(C)C)[C@]1(OC(C)=O)CO[C@@H]1C[C@@H]2O` [paclitaxel], the values for the solubility in series [2] (setting [6]), in series [2] (setting [7]) and in series [2] (setting [8]) were 5.39 ± 0.55 mg/mL (≈ 6.31 mM), 11.7 ± 0.68 mg/mL (≈ 13.7 mM) and 0.59 ± 0.01 mg/mL (≈ 0.691 mM), respectively. Besides, the “solubility in GCH” value in series [2] (setting [3]) came to 0.83 ± 0.16 mg/mL (≈ 0.972 mM).

Consider `O=c1c(O)c(-c2ccc(O)c(O)c2)oc2cc(O)cc(O)c12` [quercetin], for which the solubility in series [2] (setting [9]) stood at 20.1 ± 0.41 mg/mL (≈ 66.4 mM); in series [2] (setting [6]) it was 1.72 ± 0.09 mg/mL (≈ 5.69 mM); in series [2] (setting [7]) it was 205 ± 7.31 mg/mL (≈ 679 mM); in series [2] (setting [8]) it was 146 ± 2.82 mg/mL (≈ 483 mM); in series [1] (setting [10]), 23.3 ± 2.54 mg/mL; in series [1] (setting [11]), 21.6 ± 0.94 mg/mL. Besides, the solubility in series [1] (water, Solubility in Water) came to 0.3 ± 0.002 mg/mL (≈ 0.993 mM). The “Solubility in Sucrose + Choline chloride” value in series [1] worked out at 15.63 ± 0.57 mg/mL.

Regarding `C[C@@H]1O[C@@H](OC[C@H]2O[C@@H](Oc3c(-c4ccc(O)c(O)c4)oc4cc(O)cc(O)c4c3=O)[C@H](O)[C@@H](O)[C@@H]2O)[C@H](O)[C@H](O)[C@H]1O` [rutin, quercetin-3-O-rhanmoglucoside], the solubility in series [2] (setting [9]) is 122 ± 1.45 mg/mL (≈ 199 mM); in series [2] (setting [6]), 8.14 ± 0.79 mg/mL (≈ 13.3 mM); in series [2] (setting [7]) it was 353 ± 31.2 mg/mL (≈ 578 mM); in series [2] (setting [8]) it was 149 ± 2.61 mg/mL (≈ 244 mM); in series [2] (water, solvent H2O, n = 3, read-out: solubility in H2O), 0.028 mg/mL (≈ 0.0459 mM); in series [1] (setting [10]), 10.9 ± 1.7 mg/mL. Besides, the solubility in series [1] (setting [11]) was 4.78 ± 0.84 mg/mL; in series [1] (organic solvent or mixture, Solubility in Sucrose + Choline chloride) it was 2.41 ± 0.18 mg/mL; in series [1] (water, Solubility in Water) it was below 0.001 mg/mL.

The solubility is how much of the substance goes into solution per volume.
